# Reference: ChEMBL document CHEMBL5154645, “Potent Anti-SARS-CoV-2 Activity by the Natural Product Gallinamide A and Analogues via Inhibition of Cathepsin L” (J Med Chem, 2022)
# Calls of active or inactive are those of the source. The rule behind the calls is not given here.
# System: SARS-CoV-2
# Assay: Antiviral activity against SARS-CoV-2 infected in human A549 cells overexpressing ACE2 assessed as reduction in virus-induced cytopathic effect at 625 nM incubated for 1 hr followed by viral infection measured after 96 hrs by inverted microscopy
# Format: functional, organism-based
# Details: Severe acute respiratory syndrome coronavirus 2, time 97.0 hrs
smiles,measurement,value
CC[C@H](C)[C@@H](C(=O)O[C@@H](CC(C)C)C(=O)N[C@@H](CC(C)C)C(=O)N[C@@H](C)/C=C/C(=O)N1C(=O)C=C(OC)[C@@H]1C)N(C)C [GALLINAMIDE A],Activity,Active
